ChEMBL document CHEMBL1201862, “PubChem BioAssay data set” (2004)
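Compound exposure: 48 hours, 5 concentrations, 96-well plates. GI50 is the concentration that inhibits growth by half.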 Active and inactive are the calls of the source. No stated cut-off is given here; in the data, active = GI50 up to about 1.1 µM and inactive = higher.

Assays:
Test in all cases: NCI-60 cell line screen, 48 h
786-0 = tested on: 786-0
SW-620 = tested on: SW-620
HCT-116 = tested on: HCT-116
Hs-578T = tested on: Hs-578T
NCI-H460 = tested on: NCI-H460
LOX IMVI = tested on: LOX IMVI
MOLT-4 = tested on: MOLT-4
A549 = tested on: A549
OVCAR-5 = tested on: OVCAR-5
NCI-H226 = tested on: NCI-H226
A498 = tested on: A498
EKVX = tested on: EKVX
SF-295 = tested on: SF-295
RPMI-8226 = tested on: RPMI-8226
OVCAR-4 = tested on: OVCAR-4
HT-29 = tested on: HT-29
SK-MEL-5 = tested on: SK-MEL-5
HOP-92 = tested on: HOP-92
CCRF-CEM = tested on: CCRF-CEM
OVCAR-8 = tested on: OVCAR-8
K562 = tested on: K562
OVCAR-3 = tested on: OVCAR-3
NCI/ADR-RES = tested on: NCI/ADR-RES
Malme-3M = tested on: Malme-3M
DU-145 = tested on: DU-145
SR = tested on: SR
M14 = tested on: M14
UACC-257 = tested on: UACC-257
SNB-19 = tested on: SNB-19
SK-MEL-28 = tested on: SK-MEL-28
IGROV-1 = tested on: IGROV-1
HOP-62 = tested on: HOP-62
NCI-H23 = tested on: NCI-H23
HL-60 = tested on: HL-60
UACC-62 = tested on: UACC-62
COLO 205 = tested on: COLO 205
MDA-MB-435 = tested on: MDA-MB-435
PC-3 = tested on: PC-3
SF-539 = tested on: SF-539
TK-10 = tested on: TK-10
SF-268 = tested on: SF-268
SN12C = tested on: SN12C
HCC 2998 = tested on: HCC 2998
NCI-H522 = tested on: NCI-H522
MCF7 = tested on: MCF7
SK-MEL-2 = tested on: SK-MEL-2
U-251 = tested on: U-251
KM12 = tested on: KM12
SNB-75 = tested on: SNB-75
HCT-15 = tested on: HCT-15

Row | SMILES | GI50 (786-0) | GI50 (SW-620) | GI50 (HCT-116) | GI50 (Hs-578T) | GI50 (NCI-H460) | GI50 (MOLT-4) | GI50 (A549) | GI50 (OVCAR-5) | GI50 (NCI-H226) | GI50 (EKVX) | GI50 (SF-295) | GI50 (RPMI-8226) | GI50 (HT-29) | GI50 (SK-MEL-5) | GI50 (CCRF-CEM) | GI50 (OVCAR-8) | GI50 (K562) | GI50 (OVCAR-3) | GI50 (Malme-3M) | GI50 (SR) | also measured
1 | O=c1c2ccccc2nc2n1CCc1c-2[nH]c2ccc(Br)cc12 | 31.8 µM (inactive) | 59 µM (inactive) | 48.9 µM (inactive) | > 100 µM (inactive) | > 100 µM (inactive) | > 100 µM (inactive) | 43.8 µM (inactive) | > 100 µM (inactive) | > 100 µM (inactive) | > 100 µM (inactive) | 8.61 µM (inactive) | > 100 µM (inactive) | 45.5 µM (inactive) | 46 µM (inactive) | > 100 µM (inactive) | 11.1 µM (inactive) | > 100 µM (inactive) | > 100 µM (inactive) | > 100 µM (inactive) | > 100 µM (inactive) | GI50 (LOX IMVI): > 100 µM (inactive); GI50 (A498): > 100 µM (inactive); GI50 (OVCAR-4): 6.43 µM (inactive); GI50 (HOP-92): 91.2 µM (inactive); GI50 (NCI/ADR-RES): > 100 µM (inactive); GI50 (DU-145): > 100 µM (inactive); GI50 (M14): > 100 µM (inactive); GI50 (UACC-257): > 100 µM (inactive); GI50 (SNB-19): > 100 µM (inactive); GI50 (SK-MEL-28): > 100 µM (inactive); GI50 (IGROV-1): > 100 µM (inactive); GI50 (HOP-62): 16.3 µM (inactive); GI50 (NCI-H23): > 100 µM (inactive)
2 | O=CC(O)C(O)C(O)C(O)COP(=O)(O)Cc1ccccc1 (stereo not given) |  |  |  |  |  | > 10 µM (inactive) |  |  |  |  |  |  |  |  | > 10 µM (inactive) |  |  |  | > 10 µM (inactive) |  | GI50 (HL-60): > 10 µM (inactive); GI50 (UACC-62): > 10 µM (inactive); GI50 (COLO 205): > 10 µM (inactive); GI50 (MDA-MB-435): > 10 µM (inactive); GI50 (M14): > 10 µM (inactive); GI50 (IGROV-1): > 10 µM (inactive)
3 | Cc1ncc([N+](=O)[O-])n1CCNCCCn1ccnc1[N+](=O)[O-] | > 100 µM (inactive) | > 100 µM (inactive) | > 100 µM (inactive) | > 100 µM (inactive) | > 100 µM (inactive) | > 100 µM (inactive) | > 100 µM (inactive) | 75.3 µM (inactive) | > 100 µM (inactive) | > 10 µM (inactive) | > 100 µM (inactive) | > 100 µM (inactive) | > 100 µM (inactive) | > 100 µM (inactive) | > 100 µM (inactive) | > 100 µM (inactive) | > 100 µM (inactive) | > 100 µM (inactive) | > 100 µM (inactive) | > 100 µM (inactive) | GI50 (HL-60): > 100 µM (inactive); GI50 (PC-3): > 100 µM (inactive); GI50 (SF-539): > 100 µM (inactive); GI50 (TK-10): 70.3 µM (inactive); GI50 (SF-268): > 100 µM (inactive); GI50 (SN12C): > 100 µM (inactive); GI50 (HCC 2998): > 100 µM (inactive); GI50 (NCI-H522): > 100 µM (inactive); GI50 (MCF7): > 100 µM (inactive); GI50 (SK-MEL-2): > 100 µM (inactive); GI50 (U-251): > 100 µM (inactive); GI50 (KM12): > 100 µM (inactive); GI50 (SNB-75): > 100 µM (inactive); GI50 (HCT-15): > 100 µM; GI50 (UACC-257): > 100 µM (inactive); GI50 (SK-MEL-28): > 100 µM (inactive); GI50 (HOP-62): > 100 µM (inactive); GI50 (NCI-H23): > 100 µM (inactive)
